Experimental data published in patent US20210052703A1 (SHANGHAI BENEMAE PHARMACEUTICAL CORPORATION, priority 2018, published 2021).

How the values were obtained:
[1] = system: Sprague-Dawley (SD) rats; assay: stomach emptying and carbon powder propelling in SD rats (Example 1); assay type: in vivo, rat; settings: X ± SE
Procedure: Each group had 10 rats, half male and half female. The tails of the rats were labeled as follows:
The dose selection is calculated based on human dose. The clinical human dose is estimated to be about 0.4 mg/injection, one injection per day, which corresponds to 36 μg/kg rat dose, calculated based on the body surface area. Accordingly, the rats were tested at a medium dose of 30 μg/kg, a low dose at 50% of the medium dose, and a high dose at 200% of the medium dose. The clinical human dose of liraglutide for treating obesity is 3.0 mg/injection, one injection per day, which corresponds to 270 μg/kg rat dose, calculated based on the body surface area.
The positive control was liraglutide injectable formulation, which was stored in dark, sealed condition. The rats were raised and kept at the Laboratory Animal Center, Shanghai University of Traditional Chinese Medicine.
The injectable formulations were made and diluted at the time of experiment, as follows:
The rats were fasted for 16 hours with only water provided. Before being divided into groups, the rats were weighed and weights were recorded (cage numbering and tail labeling). Based on the body weight, the rats were randomly divided into 5 groups, 10 in each group, half male and half female.
The rats were administered with appropriate amounts of Beinaglutide or liraglutide based on their body weights by subcutaneous injection. Female rats were injected after male rats, in the order of their group numbers: 101, 201, 301, 401, 501, 102, 202, 302, 402, 502, etc. The formulations were injected to the rats by lifting the skin in the back, placing the needle of the syringe subcutaneously and injecting. When retrieving the needle, the site of injection was pressed with hand to avoid leakage of the formulation. The amount of injection is about 0.1 ml/100 g body weight.

[2] = trials 5A and 5B: time course of action and adverse events; assay type: in vivo, human
[3] = system: mice with normal glycemic index; assay: glucose-induced high blood sugar in mice; assay type: in vivo
[4] = system: mice; assay: blood sugar increase induced by alloxan and streptozotocin in mice; assay type: in vivo
[5] = system: animals having a normal level of blood sugar; assay: blood sugar and insulin in animals having a normal level of blood sugar; assay type: in vivo
[6] = system: type 2 diabetic patients; assay: trial 5A: Beinaglutide with glipizide in type 2 diabetic patients; assay type: in vivo, human
[7] = pharmacokinetic studies in monkey models; settings: in vivo, sc
[8] = system: Sprague-Dawley (SD) rats; assay: stomach emptying in male and female SD rats, various dosages (Example 6); settings: female rats
Procedure: Five minutes after subcutaneous injection, gavage was conducted using 5% carbon powder suspension (in 2% carboxymethylcellulose solution) at 1.5 ml/100 g body weight. […] The stomach was wiped dry with filter paper and weighed for the gross weight of the stomach. Then the content of the stomach was removed and the stomach was weighed for the net weight. The respective distance from the pyloric sphincter to the front of carbon powder suspension and to the distal end of the large intestine was measured. • propelling distance of carbon powder in the intestine (cm)=distance from pylorus to the proximal end of carbon powder; • mass of carbon powder gavaged=concentration of carbon powder suspension×volume; • propelling rate of carbon powder (%)=propelling distance of carbon powder in the intestine (cm)/entire length of intestine (cm)×100%; • rate of gastric remains (%)=(gross weight of stomach−net weight of stomach)/mass of carbon powder gavaged×100%.
The animals were fasted 29-33 hours before injection, and the animals were not given any water 5-7 hours before injection. Injections were made by subcutaneous administration to the neck, at 0.1 ml/100 g body weight.

[9] = female rats, Beinaglutide 15 μg/kg subcutaneous
[10] = female rats, Beinaglutide 30 μg/kg subcutaneous
[11] = female rats, Beinaglutide 60 μg/kg subcutaneous
[12] = male rats, Beinaglutide 15 μg/kg subcutaneous
[13] = male rats, Beinaglutide 30 μg/kg subcutaneous
[14] = male rats, Beinaglutide 60 μg/kg subcutaneous

SMILES: CC[C@H](C)[C@H](NC(=O)[C@H](Cc1ccccc1)NC(=O)[C@H](CCC(=O)O)NC(=O)[C@H](CCCCN)NC(=O)[C@H](C)NC(=O)[C@H](C)NC(=O)[C@H](CCC(N)=O)NC(=O)CNC(=O)[C@H](CCC(=O)O)NC(=O)[C@H](CC(C)C)NC(=O)[C@H](Cc1ccc(O)cc1)NC(=O)[C@H](CO)NC(=O)[C@H](CO)NC(=O)[C@@H](NC(=O)[C@H](CC(=O)O)NC(=O)[C@H](CO)NC(=O)[C@@H](NC(=O)[C@H](Cc1ccccc1)NC(=O)[C@@H](NC(=O)CNC(=O)[C@H](CCC(=O)O)NC(=O)[C@H](C)NC(=O)[C@@H](N)Cc1cnc[nH]1)[C@@H](C)O)[C@@H](C)O)C(C)C)C(=O)N[C@@H](C)C(=O)N[C@@H](Cc1c[nH]c2ccccc12)C(=O)N[C@@H](CC(C)C)C(=O)N[C@H](C(=O)N[C@@H](CCCCN)C(=O)NCC(=O)N[C@@H](CCCNC(=N)N)C(=O)O)C(C)C [Beinaglutide]
- % of Gastric Remains [1, 9]: 96.81 ± 11.61 %
- Gross Weight of Stomach [1, 9]: 3.10 ± 0.22 g
- Propelling Distance of Carbon Powder [1, 9]: 41.96 ± 5.30 cm
- Propelling Rate of Carbon Powder [1, 9]: 46.97 ± 5.54 %
- % of Gastric Remains [1, 10]: 132.66 ± 16.34 %
- Gross Weight of Stomach [1, 10]: 3.78 ± 0.35 g
- Propelling Distance of Carbon Powder [1, 10]: 30.58 ± 3.66 cm
- Propelling Rate of Carbon Powder [1, 10]: 33.88 ± 3.98 %
- % of Gastric Remains [1, 11]: 141.53 ± 7.18 %
- Gross Weight of Stomach [1, 11]: 3.90 ± 0.15 g
- Propelling Distance of Carbon Powder [1, 11]: 5.40 ± 1.84 cm
- Propelling Rate of Carbon Powder [1, 11]: 5.94 ± 1.99 %
- % of Gastric Remains [1, 12]: 44.14 ± 17.18%
- Gross Weight of Stomach [1, 12]: 2.86 ± 0.52 g
- Propelling Distance of Carbon Powder [1, 12]: 64.22 ± 3.84 cm
- Propelling Rate of Carbon Powder [1, 12]: 61.80 ± 4.14%
- % of Gastric Remains [1, 13]: 54.92 ± 14.32%
- Gross Weight of Stomach [1, 13]: 3.08 ± 0.48 g
- Propelling Distance of Carbon Powder [1, 13]: 34.40 ± 5.91 cm
- Propelling Rate of Carbon Powder [1, 13]: 35.46 ± 6.15 %
- % of Gastric Remains [1, 14]: 128.70 ± 14.23 %
- Gross Weight of Stomach [1, 14]: 5.36 ± 0.52 g
- Propelling Distance of Carbon Powder [1, 14]: 11.90 ± 6.38 cm
- Propelling Rate of Carbon Powder [1, 14]: 12.28 ± 6.69 %
- adverse events ([2]; Beinaglutide clinical trials): mild to moderate nausea and vomiting
- peak time ([2]; after administration (injection), type 2 diabetic patients): 20 min
- half-life ([2]; human, in vivo, other: injection, type 2 diabetic patients, read-out: half-life (duration of action)): ~15 min
- effect on glucose-induced high blood sugar [3]: lower glucose-induced high blood sugar
- effect on increase of blood sugar induced by alloxan and streptozotocin [4]: reduce the increase of blood sugar induced by alloxan and streptozotocin
- effect on blood sugar and blood insulin level [5]: neither decreased blood sugar nor increased blood insulin level
- BMI ([6]; 0.1 mg three times a day with glipizide, treatment for 2 weeks, FAS n = 24, before treatment 25.51 ± 2.59): 25.53 ± 2.63 kg/m^2
- BMI ([6]; 0.1 mg three times a day with glipizide, treatment for 4 weeks, FAS n = 24, before treatment 25.51 ± 2.59): 25.40 ± 2.64 kg/m^2
- BMI ([6]; 0.1 mg three times a day with glipizide, treatment for 8 weeks, FAS n = 24, before treatment 25.51 ± 2.59): 25.25 ± 2.57 kg/m^2
- BMI ([6]; 0.1 mg three times a day with glipizide, treatment for 12 weeks, FAS n = 24, before treatment 25.51 ± 2.59): 25.20 ± 2.60 kg/m^2
- BMI ([6]; 0.15 mg three times a day with glipizide, treatment for 2 weeks, FAS n = 24, before treatment 25.66 ± 2.64): 25.63 ± 2.57 kg/m^2
- BMI ([6]; 0.15 mg three times a day with glipizide, treatment for 4 weeks, FAS n = 24, before treatment 25.66 ± 2.64): 25.45 ± 2.63 kg/m^2
- BMI ([6]; 0.15 mg three times a day with glipizide, treatment for 8 weeks, FAS n = 24, before treatment 25.66 ± 2.64): 25.19 ± 2.48 kg/m^2
- BMI ([6]; 0.15 mg three times a day with glipizide, treatment for 12 weeks, FAS n = 24, before treatment 25.66 ± 2.64): 25.11 ± 2.60 kg/m^2
- BMI ([6]; 0.2 mg three times a day with glipizide, treatment for 2 weeks, FAS n = 23, before treatment 26.71 ± 4.17): 26.44 ± 4.14 kg/m^2
- BMI ([6]; 0.2 mg three times a day with glipizide, treatment for 4 weeks, FAS n = 23, before treatment 26.71 ± 4.17): 26.52 ± 3.95 kg/m^2
- BMI ([6]; 0.2 mg three times a day with glipizide, treatment for 8 weeks, FAS n = 23, before treatment 26.71 ± 4.17): 26.09 ± 4.04 kg/m^2
- BMI ([6]; 0.2 mg three times a day with glipizide, treatment for 12 weeks, FAS n = 23, before treatment 26.71 ± 4.17): 25.92 ± 3.95 kg/m^2
- half-life [7]: 15 to 30 min
- minimal effective dosage (inhibition of stomach emptying) [8]: 10 µg/kg
- % of Gastric Remains ([8]; 10 μg/kg subcutaneous, X ± SE): 36.42 ± 6.50%
- Gross Weight of Stomach ([8]; 10 μg/kg subcutaneous, X ± SE): 1.86 ± 0.14 g
- Propelling Distance of Carbon Powder ([8]; 10 μg/kg subcutaneous, X ± SE): 53.01 ± 3.12 cm
